Among the data in patent publication EP0863769B1 (priority 1996, dated 1998) are Kd values, retold here.

Among the targets are B/Ann Arbor/1/86; A/Sichuan/1/87; X31 (A/Aichi/2/68); B/Yamagata/11/88; A/USSR/3/85; A/England/321/77; A/USSR/90/77; A/Chile/1/83; A/FW/1/50; B/USSR/100/83.
Common to all, as to format: binding, Influenza Viren
Holding throughout (settings): read-out: Affinität der Bindung an Virus, Kaff

“Poly-N-(2-Hydroxyethyl)-acrylamid mit 20% mol. 6SLN [6SLN-PAA]”: the Kd on B/Ann Arbor/1/86 was determined as 3000 nM; at A/Sichuan/1/87, 100 nM; at X31 (A/Aichi/2/68) it was 3000 nM; at B/Yamagata/11/88, 100000 nM; at A/USSR/3/85, 100 nM; at A/England/321/77, 10 nM. Moreover, the Kd was 300 nM at A/USSR/90/77, 6000 nM at A/Chile/1/83, 3000 nM on A/FW/1/50 and 2000 nM on B/USSR/100/83.
